Results on six molecules are retold here after PubChem BioAssay (NCI).

Among the test systems are SK-OV-3 ovarian; SK-MEL-28 melanoma; OVCAR-4 ovarian; OVCAR-3 ovarian; HCT-15 colon; HOP-62 NSCLC; SNB-75 CNS; COLO 205 colon; HCT-116 colon; NCI-H460 lung.
Common to all, as to test: DTP human tumour cell line panel, 48 h

Where “and” joins values, the source holds several entries; their conditions need not be identical. Equal entries are not always repeated.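 Results reflect a 48-hour exposure of cells in 96-well plates to compound at five concentrations. GI50: concentration for 50% inhibition of growth. At the TGI there is no net growth.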 Where a SMILES comes first, the peptide text is derived from it. [ ]: non-standard residue; d: D form. NMeY = CN[C@@H](Cc1ccc(O)cc1)C(=O)O; dNMeF = CN[C@H](Cc1ccccc1)C(=O)O; Sar = CNCC(=O)O

On to `Nc1ncnc2c(C3OC(CO)C(O)C3O)scc12` (configuration not stated), for which the TGI was 0.0357 µM and 0.075 µM in the experiment with SK-OV-3 ovarian; 2.64 µM and 7.04 µM in the experiment with SK-MEL-28 melanoma; 2.24 µM and 0.746 µM in the experiment with OVCAR-4 ovarian; 0.0287 µM with OVCAR-3 ovarian; 0.584 µM and 0.14 µM in the experiment with HCT-15 colon; 2.02 µM and 3.02 µM in the experiment with HOP-62 NSCLC. The TGI with SNB-75 CNS is 5.5 µM; in the experiment on COLO 205 colon it was 1.15 µM and 1.23 µM; in the experiment on HCT-116 colon, 1.12 µM and 2.72 µM; in the experiment with NCI-H460 lung it was 554 nM and 1120 nM. Moreover, the values for the GI50 in the experiment on SK-MEL-28 melanoma and in the experiment with HOP-62 NSCLC were 1200 nM and 120 nM, respectively.

With `CC[C@H](C)[C@@H]1NC(=O)[C@H](Cc2ccc(O)cc2)N(C)C(=O)[C@H](Cc2ccccc2)NC(=O)CN(C)C(=O)[C@@H]2CCCN2C(=O)[C@@H](Cc2ccccc2)N(C)C(=O)[C@H](CC(C)C)NC1=O` (cyclo(F[NMeY]IL[dNMeF]P[Sar])), the GI50 was 446 nM in the experiment on SK-OV-3 ovarian; 194 nM in the experiment on SK-MEL-28 melanoma; 0.306 µM in the experiment on OVCAR-4 ovarian; 0.248 µM in the experiment on OVCAR-3 ovarian; 4.1 µM in the experiment on HCT-15 colon; 296 nM with HOP-62 NSCLC. The GI50 was 206 nM in the experiment on SNB-75 CNS, 0.185 µM in the experiment with COLO 205 colon, 0.155 µM in the experiment with HCT-116 colon and 0.184 µM in the experiment with NCI-H460 lung. Further, the TGI with SK-OV-3 ovarian stood at 7.73 µM; in the experiment with SK-MEL-28 melanoma it was 1.46 µM; in the experiment with OVCAR-4 ovarian it was 3.99 µM; with OVCAR-3 ovarian, 3.39 µM; in the experiment with HCT-15 colon it was 19.8 µM; with HOP-62 NSCLC, 5.84 µM. Also, the TGI with SNB-75 CNS was found to be 2.78 µM; with COLO 205 colon, 3.3 µM; in the experiment on HCT-116 colon, 10.5 µM; with NCI-H460 lung, 1940 nM.

As for `COc1cccc(-n2ncc3c(N/N=C/c4ccc(S(C)(=O)=O)cc4)ncnc32)c1`, the GI50 in the experiment on SK-OV-3 ovarian was 4240 nM; with SK-MEL-28 melanoma it was 9260 nM; in the experiment on OVCAR-4 ovarian, 13.1 µM; in the experiment on OVCAR-3 ovarian, 7.41 µM; with HCT-15 colon, over 25 µM; in the experiment with HOP-62 NSCLC it was 5850 nM. In addition, the GI50 was 1890 nM in the experiment on SNB-75 CNS, 7.64 µM with COLO 205 colon, 8.46 µM with HCT-116 colon and 6.56 µM in the experiment with NCI-H460 lung. Moreover, the TGI with SK-OV-3 ovarian was 10.7 µM; in the experiment with SK-MEL-28 melanoma it was over 25 µM; with OVCAR-4 ovarian, over 25 µM; in the experiment on OVCAR-3 ovarian, over 23 µM; in the experiment with HCT-15 colon it was over 25 µM; in the experiment with HOP-62 NSCLC, 11.5 µM. The TGI in the experiment with SNB-75 CNS is 4.32 µM; with COLO 205 colon, over 25 µM; in the experiment with HCT-116 colon it was over 25 µM; with NCI-H460 lung, over 25000 nM.

On to `CCOC(=O)N1N=NC2C3OC(C[C@@]3(C#N)OC(C)=O)[C@H]21` (some centres not stated), for which the TGI in the experiment on SK-OV-3 ovarian, in the experiment on SK-MEL-28 melanoma, in the experiment with OVCAR-4 ovarian, in the experiment with OVCAR-3 ovarian, with HCT-15 colon and with HOP-62 NSCLC was over 100 µM throughout. Further, the TGI with SNB-75 CNS is over 100 µM; in the experiment with COLO 205 colon it was over 100 µM; in the experiment with HCT-116 colon, over 100 µM; with NCI-H460 lung, over 100000 nM.

Regarding `Cc1ccc(C2(O)CC(c3ccc([N+](=O)[O-])o3)=NN2C(=O)COc2ccccc2Cl)cc1` (configuration not stated), the TGI in the experiment on SK-OV-3 ovarian was over 100 µM; with SK-MEL-28 melanoma it was 45 µM; with OVCAR-4 ovarian, over 100 µM; in the experiment on OVCAR-3 ovarian it was 19.9 µM; in the experiment on HCT-15 colon it was 24.1 µM; with HOP-62 NSCLC, 83.5 µM. Moreover, the TGI was over 75.4 µM in the experiment with SNB-75 CNS, 24.1 µM with COLO 205 colon, over 87.4 µM in the experiment on HCT-116 colon and over 31600 nM with NCI-H460 lung.

With `Cc1c(C(=O)/C=C/c2ccccc2Cl)[n+](=O)c2ccccc2n1[O-]`, the TGI is 35.7 µM in the experiment on SK-OV-3 ovarian; 31.6 µM with SK-MEL-28 melanoma; 25.8 µM in the experiment on OVCAR-4 ovarian; 29.4 µM in the experiment with OVCAR-3 ovarian; 21.7 µM in the experiment with HCT-15 colon; 34.2 µM with HOP-62 NSCLC. Moreover, the TGI was found to be 30.5 µM with SNB-75 CNS, 28.8 µM with COLO 205 colon, 22.5 µM in the experiment with HCT-116 colon and 24400 nM with NCI-H460 lung.

As usually defined, the TGI is the concentration at which net growth stops. High values mean lower sensitivity of the cells, low ones greater sensitivity of the cells. The term GI50 denotes the concentration that inhibits growth by half.
